One compound from patent publication US10927089B2, “Diaryl thioether piperazine compounds, preparation methods and uses thereof” (SUNSHINE LAKE PHARMA CO., LTD., priority 2016, dated 2021) can be followed below.

By Tmax is commonly meant the time from dosing to the highest level.

The data set can be described thus: Pharmacokinetic evaluation after intramuscular injection to rats. The data set is classed as in vivo. Conditions: im, male rat, solution, 17.5 mg/kg, vortioxetine in plasma. The method, then:
The LC/MS/MS system for analysis consists of the Agilent 1200 series vacuum degassing furnace, binary syringe pump, well plate autosampler, column incubator, and API4000 three-stage quadrupole mass spectrometer equipped with electro spray ionization (ESI) source.
Waters XBridge™ C18, 2.1×30 mm, 3.5 μM column was used for analysis, and 20 μL of sample was injected. Analytical conditions: the mobile phase was (2 mM ammonium formate+0.1% formic acid) (A) and (methanol+2 mM ammonium formate+0.1% formic acid) (B). The flow rate was 0.5 mL/min.
In addition, the API4000 Series LC/MS/MS spectrometer for analysis was equipped with a G1312A binary syringe pump, G1367A autosampler and MS/MS detector; ESI source was used in LC/MS/MS spectrometer. Each analyte was treated in a suitable cation model and optimally analyzed by MRM conversion with using standard solutions. Waters XBridge™ C18 was used during the analysis and the size was: 2.1×30 mm, 3.5 μM. The mobile phase was (2 mM ammonium formate+0.1% formic acid) (A) and (methanol+2 mM ammonium formate+0.1% formic acid) (B). The flow rate was 0.5 mL/min; the column temperature was maintained at 40° C.; 15 μL of sample was injected.
The present invention evaluates the pharmacokinetic study of a series of compounds of the invention in rats. The compound of the present invention was added into a mixture formed by dissolving and dispersing Tween-20 and/or Span-20 in water after being subjected to a pretreatment such as grinding, sieving, etc., and was uniformly dispersed and fixed to a constant volume; the suspension was grinded by a ball mill, then administered. The animals were given a vortioxetine solution (17.5 mg/kg) and a suspension of vortioxetine compound (75 mg/kg) by intramuscular injection. After administration, whole blood was collected at 0.25, 1, 2, 5, 7, 24, 48, 72, 96, 120, 148, and 196 h, and plasma was separated and frozen for testing. And the plasma was centrifuge at 12,000 for 2 minutes. Plasma samples were collected and stored at −20° C. or −70° C. until LC/MS/MS analysis. […] The average drug-time curve of some of the compounds of the present invention after intramuscular injection in rats is shown in FIG. 1.

With `Cc1ccc(Sc2ccccc2N2CCNCC2)c(C)c1` [WTXT, Vortioxetine], for the setting “read-out: Exposure level AUClast”, the AUC(0-t) is 1370 ng·h/mL. In addition, under “read-out: Half-life period T1/2 (converted)”, the half-life is 164 min. Moreover, under “read-out: Peak concentration Cmax”, the Cmax came to 530 ng/mL. The Tmax (read-out: Time to peak Tmax) is 15 min.
